The numbers were not newly measured in Sander's compilation of Henry's law constants, which cites them from elsewhere.

The data set is described as follows: Henry solubility constant Hcp at 298.15 K (mol/(m3 Pa)). Conditions: cited value.
Where [1] appears, read: reference: Burkholder et al. (2015).
[2] abbreviates: reference: Burkholder et al. (2019).
Setting [3] is: reference: Fogg and Sangster (2003).
[4] abbreviates: reference: Sander et al. (2006).
[5] abbreviates: reference: Sander et al. (2011).
The mark [6] stands for this setting: reference: Barcelo and Hennion (1997).
The mark [7] stands for this setting: reference: Horvath and Getzen (1999).

Values joined by “and” are separate entries in the source; they are usually repeats but may differ in a detail not shown here. Equal entries are not always repeated. Where only a bound is given, the exact number is not on record here.

In the case of `CCCO` [1-propanol], the “Henry solubility constant Hcp” value is, setting by setting: (reference: Brockbank (2013)) 1.5; under setting [1], 1.4; under setting [2], 1.4; (reference: Dohnal et al. (2006)) 1.4; under setting [3], 1.4; under setting [4], 1.3. Further, under setting [5], the “Henry solubility constant Hcp” value was 1.4.

Regarding `CC(C)Nc1nc(Cl)nc(NC(C)C)n1` [propazine], under setting [6], the “Henry solubility constant Hcp” value is 99. Take `Cc1cc(C)cc(O)c1` [1-hydroxy-3,5-dimethylbenzene]: the “Henry solubility constant Hcp” value (reference: Brockbank (2013)) is 15.

`CCCCCCCCCCc1ccccc1` [decylbenzene]: the “Henry solubility constant Hcp” value (reference: Brockbank (2013)) is 7.6e-05. As for `COP(=S)(OC)Oc1ccc(Sc2ccc(OP(=S)(OC)OC)cc2)cc1` [temefos], the “Henry solubility constant Hcp” value under setting [6] is 1.7.

For `CCC/C=C(/C=O)CC` [2-ethyl-2-hexenal], the “Henry solubility constant Hcp” value (reference: Brockbank (2013)) is 0.052.

Consider `OCC(O)CO` [1,2,3-propanetriol], for which the “Henry solubility constant Hcp” value reads like this: under setting [1], 4.7e+06; under setting [2], 4.7e+06. `CCOP(=S)(OCC)Oc1cc(C)nc(C(C)C)n1` [diazinon]: the “Henry solubility constant Hcp” value under setting [6] is 0.15; the “Henry solubility constant Hcp” value (reference: Muir et al. (2004)) was 46 and 92. As for `CC1CCCC1` [methylcyclopentane], the “Henry solubility constant Hcp” value (reference: Brockbank (2013)) was 2.8e-05. For `C1=C\CCCCCC/1` [cyclooctene], the “Henry solubility constant Hcp” value (reference: Brockbank (2013)) was 0.00021. Turning to `O=C(O)CBr` [bromoethanoic acid], the “Henry solubility constant Hcp” value is, setting by setting: under setting [1], 1500; under setting [2], 1500; under setting [5], 1500.

As for `c1cc2ccc3ccc4ccc5cccc6c(c1)c2c3c4c56` [benzo[ghi]perylene], the “Henry solubility constant Hcp” value (reference: Mackay et al. (1992b)) was 13. With `CS(=O)(=O)c1cc(C(F)(F)F)ccc1C(=O)c1cnoc1C1CC1` [isoxaflutole], for the setting “reference: MacBean (2012b)”, the “Henry solubility constant Hcp” value was 53000.

As for `CCOC(=O)CCl` [ethyl chloroethanoate], the “Henry solubility constant Hcp” value (reference: Brockbank (2013)) was 0.26. For `Cc1cccc(C)c1C` [1,2,3-trimethylbenzene], the “Henry solubility constant Hcp” value runs as follows: (reference: Brockbank (2013)) 0.0024; under setting [3], 0.0027. For `CCNc1ccccc1` [(ethylamino)-benzene], the “Henry solubility constant Hcp” value (reference: Brockbank (2013)) was 0.81.

On to `COC(=O)C(F)(F)F` [trifluoroethanoic acid, methyl ester], for which the “Henry solubility constant Hcp” value was 0.0011 under setting [1], 0.0011 under setting [2] and 0.0011 under setting [5]. As for `[Kr]` [krypton], the “Henry solubility constant Hcp” value (reference: Clever (1979b)) is 2.5e-05. With `COc1ccccc1` [methoxybenzene], the “Henry solubility constant Hcp” value is 0.029 (reference: Brockbank (2013)); 0.0023 (reference: Hine and Weimar (1965)). With `CCCOC(=O)CC` [propyl propanoate], where the note is “reference: Brockbank (2013)”, the “Henry solubility constant Hcp” value was 0.026. For `FC(F)(F)C(Cl)Br` (stereo unspecified) [1-bromo-1-chloro-2,2,2-trifluoroethane], the “Henry solubility constant Hcp” value under setting [3] is 0.00056. Consider `CC(C)C(=O)C(C)C` [2,4-dimethyl-3-pentanone], for which the “Henry solubility constant Hcp” value (reference: Brockbank (2013)) was 0.023. Take `ClC(Cl)C(Cl)Cl` [1,1,2,2-tetrachloroethane]: the “Henry solubility constant Hcp” value (reference: Barr and Newsham (1987)) was 0.018; the “Henry solubility constant Hcp” value (reference: Brockbank (2013)) is 0.024; the “Henry solubility constant Hcp” value under setting [1] is 0.023; the “Henry solubility constant Hcp” value under setting [2] was 0.023; the “Henry solubility constant Hcp” value (reference: Goldstein (1982)) was 0.023.

With `Nc1ccc(-c2ccc(N)c(Cl)c2)cc1Cl` [3,3'-dichloro-(1,1'-biphenyl)-4,4'-diamine], the “Henry solubility constant Hcp” value (reference: Mackay et al. (1995)) is 12. Regarding `CCOC1Oc2ccc(OS(C)(=O)=O)cc2C1(C)C` (stereo unspecified) [ethofumesate], the “Henry solubility constant Hcp” value under setting [6] was 45. Consider `Nc1ccccc1[N+](=O)[O-]` [2-nitrobenzenamine], for which the “Henry solubility constant Hcp” value (reference: Brockbank (2013)) was 71. Consider `CCC(O)CC` [3-pentanol], for which the “Henry solubility constant Hcp” value (reference: Brockbank (2013)) was 0.6.

Turning to `N#CCc1ccccc1` [benzeneacetonitrile], where the note is “reference: Brockbank (2013)”, the “Henry solubility constant Hcp” value is 1.1. As to `Cc1cc2ccccc2cc1C` [2,3-dimethylnaphthalene], where the note is “reference: Meylan and Howard (1991)”, the “Henry solubility constant Hcp” value was 0.011. For the compound `OC[C@@H](O)[C@@H](O)CO` [2(R),3(S)-1,2,3,4-butanetetrol], the “Henry solubility constant Hcp” value is, setting by setting: under setting [1], 1.1e+10; under setting [2], 1.1e+10. `CCCCCCC(C)=O` [2-octanone]: for the setting “reference: Brockbank (2013)”, the “Henry solubility constant Hcp” value is 0.05.

Consider `O=C(Nc1ccccc1-c1ccc(Cl)cc1)c1cccnc1Cl` [boscalid], for which, where the note is “reference: MacBean (2012b)”, the “Henry solubility constant Hcp” value was 19000.

As for `C=CCCCCCCCCCCCCC` [1-pentadecene], the “Henry solubility constant Hcp” value (reference: Brockbank (2013)) was 2.2e-06. As for `O=C(O)C(Cl)Cl` [dichloroethanoic acid], the “Henry solubility constant Hcp” value is, setting by setting: under setting [1], 1200; under setting [2], 1200; under setting [5], 1200. Take `Cc1cccc(O)c1C` [1-hydroxy-2,3-dimethylbenzene]: where the note is “reference: Brockbank (2013)”, the “Henry solubility constant Hcp” value is 6.7. Turning to `COC(=O)N(OC)c1ccccc1COc1ccn(-c2ccc(Cl)cc2)n1` [pyraclostrobine], for the setting “reference: MacBean (2012b)”, the “Henry solubility constant Hcp” value is 190000. For `ClC(Cl)=C(Cl)C(Cl)=C(Cl)Cl` [hexachlorobutadiene], the “Henry solubility constant Hcp” value is 0.00056 (reference: Brockbank (2013)), 0.00083 under setting [3], 0.00098 (reference: Goldstein (1982)) and 0.00096 under setting [7]. `CCCOCC` [ethyl propyl ether]: the “Henry solubility constant Hcp” value (reference: Howard and Meylan (1997)) was 0.0077. As for `CC(=O)C(Cl)Cl` [1,1-dichloro-2-propanone], the “Henry solubility constant Hcp” value is 0.33 under setting [1] and 0.33 under setting [2]. Take `ClC=CCCl` [1,3-dichloropropene]: the “Henry solubility constant Hcp” value runs as follows: under setting [6], 2.4e-05; (reference: Goldstein (1982)) 0.0028; under setting [7], 0.0028. `CCC(CC)Nc1c([N+](=O)[O-])cc(C)c(C)c1[N+](=O)[O-]` [penoxaline]: the “Henry solubility constant Hcp” value under setting [6] was 0.0026. In the case of `CCCCS` [1-butanethiol], the “Henry solubility constant Hcp” value (reference: Brockbank (2013)) was 0.0015. With `OCCO` [1,2-ethanediol], the “Henry solubility constant Hcp” value is 6500 under setting [1] and 6500 under setting [2].

For `CCCCCC(C)=O` [2-heptanone], the “Henry solubility constant Hcp” value (reference: Brockbank (2013)) was 0.068.

`BrC(Br)Br` [tribromomethane]: the “Henry solubility constant Hcp” value (reference: Brockbank (2013)) was 0.018; the “Henry solubility constant Hcp” value under setting [1] is 0.017; the “Henry solubility constant Hcp” value under setting [2] was 0.017; the “Henry solubility constant Hcp” value (reference: Goldstein (1982)) is 0.018; the “Henry solubility constant Hcp” value (reference: Nicholson et al. (1984)) was 0.017; the “Henry solubility constant Hcp” value under setting [4] was 0.017. Also, the “Henry solubility constant Hcp” value under setting [5] is 0.017. For `[CH3][Hg][Cl]` [chloromethylmercury], the “Henry solubility constant Hcp” value (reference: WHO (1990)) is 20. With `FC(F)(F)F` [tetrafluoromethane], the “Henry solubility constant Hcp” value was 2.1e-06 under setting [1], 2.1e-06 under setting [2] and 2.1e-06 under setting [5]. For `CCCCOC(=O)CC` [butyl propanoate], where the note is “reference: Brockbank (2013)”, the “Henry solubility constant Hcp” value is 0.022. For `S=C=S` [carbon disulfide], the “Henry solubility constant Hcp” value is 0.00061 under setting [1]; 0.00061 under setting [2]; 0.00075 (reference: Goldstein (1982)); 0.00061 under setting [4]; 0.00061 under setting [5].

`CNC(=O)Oc1cc(C)c(SC)c(C)c1` [methiocarb]: the “Henry solubility constant Hcp” value (reference: MacBean (2012b)) was 8400. As for `S=C([S-])NCCNC(=S)[S-].[Zn+2]` [zineb], the “Henry solubility constant Hcp” value (reference: MacBean (2012b)) was greater than 3700. Regarding `Cc1cccc(C)c1N(Cn1cccn1)C(=O)CCl` [metazachlor], the “Henry solubility constant Hcp” value under setting [6] is 13. `OCC(F)(F)F` [2,2,2-trifluoroethanol]: the “Henry solubility constant Hcp” value reads like this: under setting [1], 0.47; under setting [2], 0.47; under setting [5], 0.47. In the case of `CS(C)=O` [dimethylsulfoxide], the “Henry solubility constant Hcp” value (reference: Betterton (1992)) is 14; the “Henry solubility constant Hcp” value (reference: Brockbank (2013)) is 8000; the “Henry solubility constant Hcp” value under setting [1] is 980; the “Henry solubility constant Hcp” value under setting [2] was 980; the “Henry solubility constant Hcp” value under setting [4] was 980; the “Henry solubility constant Hcp” value under setting [5] is 980. With `[OH]` [hydroxyl radical], the “Henry solubility constant Hcp” value (reference: Jacob (1986)) was 0.25.

For `CCCC[N+](=O)[O-]` [1-nitrobutane], for the setting “reference: Brockbank (2013)”, the “Henry solubility constant Hcp” value was 0.076. `Clc1ccc(-c2ccc(Cl)cc2)cc1` [4,4'-dichlorobiphenyl]: the “Henry solubility constant Hcp” value (reference: Murphy et al. (1983b)) is 0.033.

For `[O][Cl+][O-]` [chlorine dioxide], the “Henry solubility constant Hcp” value under setting [1] was 0.01; the “Henry solubility constant Hcp” value under setting [2] was 0.01; the “Henry solubility constant Hcp” value under setting [4] was 0.01; the “Henry solubility constant Hcp” value under setting [5] is 0.01; the “Henry solubility constant Hcp” value (reference: Young (1983)) is 0.01. In the case of `CCOP(=S)(OCC)SCSCC` [phorate], the “Henry solubility constant Hcp” value under setting [6] was 0.015. Regarding `c1ccc2cc3c(cc2c1)-c1cccc2cccc-3c12` [benzo[k]fluoranthene], where the note is “reference: Goldstein (1982)”, the “Henry solubility constant Hcp” value was 0.0096. For the compound `CC(=O)OCC(C)C` [2-methylpropyl ethanoate], the “Henry solubility constant Hcp” value (reference: Brockbank (2013)) is 0.026. With `OCC(F)F` [2,2-difluoroethanol], the “Henry solubility constant Hcp” value is 0.93 under setting [1] and 0.93 under setting [2]. Take `ClCCOCOCCCl` [bis-(2-chloroethoxy)-methane]: the “Henry solubility constant Hcp” value (reference: Goldstein (1982)) was 8.8 and 26.

Turning to `CC(=O)Oc1ccccc1` [phenyl ethanoate], under “reference: Brockbank (2013)”, the “Henry solubility constant Hcp” value is 1.3.
